The values below come from article PMC7249060, “The Antiproliferative Effects of Flavonoid MAO Inhibitors on Prostate Cancer Cells” (Molecules, 2020).

The structures appear in SMILES notation.

The subject of this data set is LNCaP cells. Put plainly: Viability screen assay, resazurin, 24 h. Conditions: 50 μM, 90% viability as margin of cytotoxicity. It is filed as cell-based, human. The procedure:
We examined the cytotoxic effects of all 20 synthesized KKRs on the three human PCa cell lines LNCaP, DU145, and PC3, after a 24 h exposure period. Non-toxic TAX was used for comparison. Briefly, cultured cells were seeded in black transparent bottom 96-well microplates at 50,000 cells/175-µL/well in experimental media (RPMI1640 for LNCaP, EMEM for DU145, and DMEM/F12K for PC3), supplied with 5% FBS and 1% P/S. Wells of media without cells were considered blanks and negative controls. The plates were incubated overnight at 37 °C in 5% CO2 to allow cell attachment. For each compound, a working solution of 8X KKR in sterile […] HEPES in HBSS pH buffer of 7.4 was prepared for a final concentration of 50 μM each. The three attached cell types were treated immediately with the related buffer being added to the control wells. A sterile fluorescence-based solution of the resazurin reagent of 0.5 mg/mL in HBSS was prepared. After 24 h, the cells were exposed to 15% v/v of the sterile resazurin reagent, and the plates were re-incubated for 4.5 h to allow redox reaction. All plates were read under 530/590-nm excitation/emission wavelengths using Bio-Tek Synergy HTX Multi-reader as a microplate fluorescence reader.
Background: Resazurin is reduced to fluorescent resorufin, in cell work by metabolically active cells.

As to `O=c1c(O)c(-c2ccccc2)oc2c(Cl)cc(Cl)cc12` [KKR7, 6,8-dichloro-3-hydroxy-2-phenyl-4H-chromen-4-one], the “cytotoxicity / cell viability” value was “affected the LNCaP cells”.
